Broadly, the MIC is the lowest concentration that inhibits growth of the organism. Read a low MIC as greater potency. As a reminder, the LD50 is the dose expected to kill half of the subjects tested.

The subject of data set [1] is E. coli. The data set is described as follows: MIC on Mueller-Hinton agar plates, mastitis pathogens. The class given is cell-based. Conditions: Escherichia coli; 18-24 hours at 37° C.; less than one colony per plate; duplicate. How it is done: (§1) The products of this inventions have a broad inhibitory spectrum and high potency. One test system employed seven different mastitis pathogens inoculated onto separate Mueller-Hinton agar plates which contained 1, 5, 10, 20, 40, 80 or 100 mcg./ml. of the cited dihydrochloride final concentration. After incubation for 18-24 hours at 37° C., the minimal inhibitory concentration was determined as that showing less than one colony per plate; all assays were made in duplicate. The MIC's in mcg./ml. observed were: Streptococcus dysgalactiae, 1; Streptococcus uberis, 1; Streptococcus agalactiae, 1; S. aureus, 5; E. coli, 5; Klebsiella sp., 5; and Pseudomonas aeruginosa, 80.

In data set [2] the test system is Klebsiella sp. The description is as above. The format is cell-based. The settings on record: 18-24 hours at 37° C., less than one colony per plate, duplicate. On the procedure: as §1
Data set [3] concerns Pseudomonas aeruginosa. Described as above. The format is cell-based. The settings on record: 18-24 hours at 37° C., less than one colony per plate, duplicate. On the procedure: as §1
The subject of data set [4] is S. aureus. The description is as above. The format is cell-based. The settings on record: Staphylococcus aureus; 18-24 hours at 37° C.; less than one colony per plate; duplicate. On the procedure:
as §1

Data set [5] relates to Streptococcus agalactiae. Described as above. The format is cell-based. The settings on record: 18-24 hours at 37° C., less than one colony per plate, duplicate. How it is done:
as §1

Data set [6] deals with Streptococcus dysgalactiae. The description is as above. The settings on record: 18-24 hours at 37° C., less than one colony per plate, duplicate. The format is cell-based. On the procedure:
as §1

The test system of data set [7] is Streptococcus uberis. The description is as above. Conditions: 18-24 hours at 37° C., less than one colony per plate, duplicate. The format is cell-based. How it is done:
as §1

For data set [8], the system named is E. coli. The data set is described as follows: Excised cow's udder teat dip in vitro (modified National Mastitis Council's Protocol A). The settings on record: Escherichia coli, 10 min, 0.5% solution. On the procedure: (§2) Additional efficacy studies were made using a laboratory modification of the National Mastitis Council's Protocol A with excised cow's udder in vitro. Prepared teats were dipped to a depth of approximately 15 mm. into a skim milk inoculum containing the test bacteria and then allowed to drain for 5 minutes. Then each teat was dipped into a distilled water solution of the cited dihydrochloride salt using concentrations which ranged from 0.05 up to 1% to a depth of 25 mm. After a period of 10 minutes the removal of any surviving organisms was accomplished by rinsing the teats using 5 ml. of a quenching solution of lecithin (0.05%), tween-80 (0.5%) and sodium thiosulfate (0.5%). The rinse solutions were diluted in sterile saline, plated on an appropriate medium and incubated at 37° C. for 18-20 hours. Colonies were then counted for only those plates with 15-300 colonies, and all dilutions were plated in duplicate. The percent reduction in microorganisms on the teat surfaces was determined using as controls the inoculated teats dipped in sterile distilled water. […] A 0.1% solution caused a 99% reduction for Pseudomonas aeruginosa.

Data set [9] deals with Klebsiella sp. Described as above. Conditions: 10 min, 0.5% solution. On the procedure:
as §2

Data set [10] has as its system Pseudomonas aeruginosa. The data set is described as above. Conditions: 10 min. On the procedure: as §2
Data set [11] relates to S. aureus. The data set is described as above. Conditions: Staphylococcus aureus, 10 min, 0.5% solution. How it is done:
as §2

In data set [12] the test system is Streptococcus agalactiae. The data set is described as above. The settings on record: 10 min, 0.5% solution. How it is done:
as §2

Data set [13] has as its system Streptococcus dysgalactiae. The data set is described as above. Conditions: 10 min, 0.5% solution. How it is done: as §2
For data set [14], the system named is Streptococcus uberis. The description is as above. The settings on record: 10 min, 0.5% solution. How it is done:
as §2

The next data set in a line: in vivo. Conditions: mouse, mice, oral, 100 mg./ml. in 1% aqueous methylcellulose (100 cps), read-out: acute oral LD50. The text has this: (§3) Thus instead of contributing to or initiating skin cracking and drying the diaminopropanol derivative should promote healing of damaged skin areas whether inflicted mechanically, by weather conditions or as the result of exposure to toxic chemical treatments.

Data set [15] has as its system intact or abraded dorsal skin of shaved areas (rabbits). Description: Skin irritation, occlusive dressing 24 hours. The format is in vivo.
Description: as §3

The subject of the next data set is eye. The settings on record: in vivo.
Description: as §3

Data set [16] can be described thus: Residues in milk after application to the udder. The class given is in vivo, cow. The text has this:
The sensitivity of the analytical method employed met the stringent criteria set by various governmental agencies.

Data set [17] is described as follows: Toxicity and skin irritation, overall. The class given is in vivo.
Description: as §3

Data set [18] deals with Gram positive, gram negative bacteria, certain yeasts and various fungi. The data set is described as follows: Antimicrobial spectrum: bacteria, yeasts and fungi destroyed or rendered static. The class given is cell-based.
For data set [19], the system named is gram negative pathogens such as Pseudomonas species. Conditions: background statement; cited from earlier work.

Turning to `CC(C)c1ccc(CCC(CCc2ccc(C(C)C)cc2)NCC(O)CN)cc1.Cl.Cl.O` (stereo not shown) [cited dihydrochloride, 1-amino-3-{{3-[4-(1-methylethyl)phenyl]-1-{2-[4-(1-methylethyl)phenyl]ethyl}propyl}amino]-2-propanol dihydrochloride monohydrate], the minimal inhibitory concentration (MIC) was 5 µg/mL against E. coli [1]; 5 µg/mL in the data set on Klebsiella sp. [2]; 80 µg/mL against Pseudomonas aeruginosa [3]; 5 µg/mL against S. aureus [4]; 1 µg/mL against Streptococcus agalactiae [5]; 1 µg/mL in [6]. The compound further had an MIC against Streptococcus uberis [7] of 1 µg/mL. Besides, the killing at 0.5 % in the data set on E. coli [8] is above 99.8%; with Klebsiella sp. [9] it was above 99.8%; with Pseudomonas aeruginosa [10] (0.5% solution), above 99.8%; in the data set with S. aureus [11] it was 98 to 99.8%; in the data set on Streptococcus agalactiae [12], above 99.8%; in data set [13] it was 98 to 99.8%. Further, in the data set with Streptococcus uberis [14], the killing at 0.5 % was above 99.8%. In the data set on Pseudomonas aeruginosa [10] (0.1% solution, read-out: reduction), the killing at 0.1 % worked out at 99%. Further, the median lethal dose (LD50) in the data set “in vivo” was 1300 mg/kg. The skin irritation entry is recorded as “essentially non-irritating” in [15] (1% solution in distilled water, intact or abraded skin, 24 hours occlusive, observed two weeks) and “slightly irritating” in [15] (5% in distilled water). Moreover, the “signs of skin irritation remaining” value in data set [15] (5% in distilled water, after seven days) is given as “no signs remaining after seven days”. Moreover, in the data set on eye, the eye irritation entry is reported as “very slightly irritating”. Moreover, in the data set with eye, the “time for eye effects to disappear” value is at most 24 h. The “residues in the milk” value in data set [16] (1% solution applied to the udder, preliminary experiments) is “no detectable residues”. The skin penetration result in data set [16] (bovine) is reported as “appears unable to penetrate the skin”. In addition, the “skin irritation, overall” value in [17] (in vivo) is “practically non-irritating on skin”. The toxicity entry in data set [17] (overall statement) was “low toxicity”.
With `CC(C)c1ccc(CCC(CCc2ccc(C(C)C)cc2)NCC(O)CN)cc1` (stereo not shown) [Example 1, 1-Amino-3-{{3-[4-(1-methylethyl)phenyl]-1-{2-[4-(1-methylethyl)phenyl]ethyl}propyl}amino]-2-propanol], in data set [18] (many organisms), the “concentrations by which many are controlled” value was “one to one-hundred”. Also, the “concentrations by which bacteria, yeasts and fungi are destroyed or rendered static” value in [18] (overall range) is “less than one to one-thousand”.
As to `[H]/N=C(\N/C(=N/[H])NCCCCCCNC(=N)NC(=N)Nc1ccc(Cl)cc1)Nc1ccc(Cl)cc1` [chlorhexidine], the “effectiveness against gram negative pathogens” value in data set [19] is recorded as “poorly effective”.
